Source: patent US10517889B2, “Modulators of SMAD7 expression” (Ionis Pharmaceuticals, Inc., priority 2017, dated 2019)
Strand notation (5' to 3'): a small letter for the sugar, then the base; units joined by * are phosphorothioate-linked, units joined directly phosphodiester-linked; [ ] holds rarer units or linkages, { } end groups; capitals alone tell only the bases. k = constrained ethyl (cEt); [5mC] = 5-methylcytosine; d = 2'-deoxy (DNA)

The substances below were run on human SMAD7 mRNA (assay: Antisense inhibition of human SMAD7 mRNA expression in Hep3B cells by 3-10-3 cEt gapmers, 10,000 nM, electroporation (Example 2)). Conditions: Hep3B cells, 10,000 nM antisense oligonucleotide, electroporation, approximately 24 hours, RT-PCR primer probe set RTS5062, relative to untreated control cells.
Type: cell-based
Procedure, shortened: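 Hep3B cells (20,000/well) were electroporated with 10,000 nM 3-10-3 cEt gapmer (16-mer, phosphorothioate, 5-methylcytosines) and harvested after about 24 h. SMAD7 mRNA quantified by RT-qPCR with primer probe set RTS5062, normalized to total RNA by RiboGreen; percent inhibition relative to untreated cells.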

| Substance | % Inhibition [%] |
| --- | --- |
| 799935 (antisense kA*kG*kA*dA*dA*dT*dG*dA*d[5mC]*dT*dT*dT*dT*kT*kA*k[5mC]) [compound 799935] | 42 |
| 799959 (antisense kA*kG*k[5mC]*dT*dT*dG*dT*dG*dG*dA*dG*dA*dG*kT*kG*k[5mC]) [compound 799959] | 1 |
| 798836 (kG*kT*k[5mC]*d[5mC]*dG*dA*dG*dG*d[5mC]*dA*dA*dA*dA*kG*k[5mC]*k[5mC]; antisense) [compound 798836] | 56 |
| 798927 (antisense k[5mC]*kA*kG*d[5mC]*dA*dA*dA*dG*dT*dA*dG*dT*dT*kT*kG*kA) [compound 798927] | 0 |

Same assay, conditions: Hep3B cells, electroporation with 10,000 nM antisense oligonucleotide, approximately 24 hours, RTS5062, percent inhibition of SMAD7 mRNA relative to untreated control cells

| Substance | % Inhibition [%] |
| --- | --- |
| 799803 (kA*kG*kA*dA*dG*dG*dA*dT*dG*dA*dA*dT*dG*kT*kG*kA; antisense) [compound 799803] | 10 |
| 799762 (antisense kG*kT*k[5mC]*d[5mC]*dT*dA*dA*dA*dG*dA*d[5mC]*dG*dG*k[5mC]*kT*k[5mC]) [compound 799762] | 21 |
| 799761 (antisense kT*kG*kT*d[5mC]*dA*dT*dT*dA*dG*dA*dA*d[5mC]*dA*kA*kT*kG) [compound 799761] | 35 |
| 799603 (kG*k[5mC]*k[5mC]*d[5mC]*dA*dT*dT*dA*dT*dG*dA*dA*dT*kA*k[5mC]*kA; antisense) [compound 799603] | 52 |
| 799587 (kT*kT*k[5mC]*dA*d[5mC]*dA*dG*dG*dT*d[5mC]*dA*d[5mC]*dA*kT*kG*kG; antisense) [compound 799587] | 42 |

Same assay, conditions: Hep3B cells, electroporation with 10,000 nM antisense oligonucleotide, approximately 24 hours, SMAD7 mRNA by RT-PCR (RTS5062), relative to untreated control cells

| Substance | % Inhibition [%] |
| --- | --- |
| 799413 (antisense kA*kT*kT*dA*d[5mC]*dT*dG*dA*dT*dG*d[5mC]*dT*dA*kA*kA*kT) [compound 799413] | 34 |
| 799909 (antisense kA*kT*kT*d[5mC]*dA*dT*dA*dA*dT*dA*dT*dT*dG*kA*k[5mC]*kA) [compound 799909] | 36 |
| 830064 (kA*kT*kG*dG*dT*dG*d[5mC]*dT*d[5mC]*dT*dG*d[5mC]*d[5mC]*k[5mC]*kT*kT; antisense) [compound 830064] | 29 |
| 800046 (kG*kG*k[5mC]*d[5mC]*dA*dA*d[5mC]*dA*dG*dG*dA*dG*dG*kA*kG*kG; antisense) [compound 800046] | 42 |
| 798915 (kT*k[5mC]*kT*dG*dT*d[5mC]*d[5mC]*d[5mC]*d[5mC]*dT*d[5mC]*d[5mC]*dG*k[5mC]*kA*k[5mC]; antisense) [compound 798915] | 7 |
| 799850 (kG*k[5mC]*kA*dA*dT*dA*dA*dA*dT*d[5mC]*dA*dA*d[5mC]*k[5mC]*kA*kG; antisense) [compound 799850] | 49 |
| 798845 (k[5mC]*kG*k[5mC]*dA*d[5mC]*d[5mC]*dT*dT*d[5mC]*dT*dG*d[5mC]*dA*k[5mC]*k[5mC]*kA; antisense) [compound 798845] | 18 |
| 830107 (kT*k[5mC]*kA*dT*dT*dA*dA*dG*d[5mC]*d[5mC]*d[5mC]*dG*d[5mC]*kT*k[5mC]*kT; antisense) [compound 830107] | 50 |
| 799886 (antisense kA*k[5mC]*k[5mC]*dA*dA*dG*d[5mC]*dT*dA*d[5mC]*dT*dT*dT*kT*kG*k[5mC]) [compound 799886] | 25 |

Same assay, conditions: Hep3B cells, electroporation with 10,000 nM antisense oligonucleotide, approximately 24 hours, primer probe set RTS5062, relative to untreated control cells

| Substance | % Inhibition [%] | % inhibition of SMAD7 mRNA expression [%] |
| --- | --- | --- |
| 798995 (antisense kA*k[5mC]*kT*d[5mC]*dA*d[5mC]*dA*d[5mC]*dT*d[5mC]*dA*d[5mC]*dA*k[5mC]*kA*k[5mC]) [compound 798995] | 0 | – |
| 798989 (antisense kA*kA*kG*dT*dG*dA*dA*dA*dT*dG*dA*dT*dG*kA*k[5mC]*k[5mC]) [compound 798989] | – | 8 |
| 799085 (antisense kG*k[5mC]*k[5mC]*d[5mC]*dT*dT*dG*dG*dG*dA*dA*dG*d[5mC]*k[5mC]*k[5mC]*kA) [compound 799085] | – | 10 |
| 798957 (antisense kA*kT*kT*d[5mC]*dT*dT*dT*dT*d[5mC]*dA*dT*dA*dA*kG*k[5mC]*kT) [compound 798957] | 28 | – |
| 799170 (antisense kT*k[5mC]*kA*dT*dT*dG*dA*dG*d[5mC]*dT*dA*dA*dG*kA*kA*k[5mC]) [compound 799170] | – | 17 |
| 799009 (kT*k[5mC]*k[5mC]*d[5mC]*d[5mC]*dA*dT*d[5mC]*dT*dG*d[5mC]*d[5mC]*dG*k[5mC]*kT*k[5mC]; antisense) [compound 799009] | – | 62 |
| 799248 (antisense kG*k[5mC]*k[5mC]*dA*d[5mC]*dG*dA*d[5mC]*dA*dG*dT*dA*dT*k[5mC]*kT*kG) [compound 799248] | – | 40 |
| 799232 (kT*k[5mC]*kA*dG*d[5mC]*dT*dA*dG*dG*dT*dG*dA*dT*kA*kA*k[5mC]; antisense) [compound 799232] | – | 13 |
| 772712 (kA*k[5mC]*k[5mC]*d[5mC]*dA*dT*dA*dG*dA*dA*dA*dA*dA*kA*kA*k[5mC]; antisense) [compound 772712] | – | 0 |
| 799086 (antisense kG*kG*k[5mC]*dA*dG*d[5mC]*d[5mC]*d[5mC]*dT*dT*dG*dG*dG*kA*kA*kG) [compound 799086] | – | 0 |

Same assay, conditions: Hep3B cells, electroporation, 10,000 nM antisense oligonucleotide, approximately 24 hours, RTS5062, relative to untreated control cells

| Substance | % inhibition of SMAD7 mRNA expression [%] |
| --- | --- |
| 799657 (antisense kT*kA*k[5mC]*dA*dA*dG*dT*dG*dG*dT*dT*dG*d[5mC]*kT*kG*kG) [compound 799657] | 62 |
| 799757 (antisense k[5mC]*k[5mC]*kG*dT*dT*dA*d[5mC]*dT*dG*dG*dA*d[5mC]*dA*k[5mC]*kA*kG) [compound 799757] | 41 |
| 799598 (k[5mC]*kA*kA*d[5mC]*dT*d[5mC]*dT*dG*dA*dA*d[5mC]*dG*dG*kA*kA*kA; antisense) [compound 799598] | 39 |
| 799654 (antisense kG*k[5mC]*kT*dG*dA*dA*dT*dA*dA*d[5mC]*d[5mC]*dT*dA*k[5mC]*kA*kA) [compound 799654] | 22 |
| 799836 (antisense kA*kG*kA*dT*dA*dT*d[5mC]*dG*dG*d[5mC]*d[5mC]*d[5mC]*d[5mC]*k[5mC]*kT*kG) [compound 799836] | 61 |
| 799835 (antisense kG*k[5mC]*kA*dG*dA*dT*dG*dT*dA*dT*dA*d[5mC]*dA*kA*kA*kT) [compound 799835] | 70 |

Same assay, conditions: SMAD7 mRNA, Hep3B cells, 10,000 nM antisense oligonucleotide, electroporation, approximately 24 hours, primer probe set RTS5062, relative to untreated control cells

| Substance | % Inhibition [%] |
| --- | --- |
| 772551 (antisense kT*kT*k[5mC]*dA*dG*dA*dT*d[5mC]*d[5mC]*dG*d[5mC]*d[5mC]*dT*k[5mC]*kG*kG) [compound 772551] | 39 |
| 829755 (antisense kT*kT*k[5mC]*dT*d[5mC]*d[5mC]*d[5mC]*d[5mC]*dG*d[5mC]*dA*dG*d[5mC]*kT*k[5mC]*kG) [compound 829755] | 52 |
| 829730 (antisense kG*k[5mC]*kA*dG*dG*d[5mC]*dG*d[5mC]*dA*dG*dG*d[5mC]*dG*kA*k[5mC]*kA) [compound 829730] | 23 |
| 829766 (antisense k[5mC]*kT*kG*d[5mC]*d[5mC]*dG*d[5mC]*dT*d[5mC]*d[5mC]*dT*dT*d[5mC]*kA*kG*kT) [compound 829766] | 32 |
| 772571 (antisense k[5mC]*k[5mC]*kG*dT*dA*dA*dG*dA*dT*dT*d[5mC]*dA*d[5mC]*kA*kG*k[5mC]) [compound 772571] | 50 |
| 772592 (k[5mC]*kA*k[5mC]*d[5mC]*dA*dG*dT*dG*dT*dG*dA*d[5mC]*d[5mC]*kG*kA*kT; antisense) [compound 772592] | 24 |

Same assay, conditions: SMAD7 mRNA, Hep3B cells, electroporation with 10,000 nM antisense oligonucleotide, approximately 24 hours, primer probe set RTS5062, relative to untreated control cells

| Substance | % Inhibition [%] |
| --- | --- |
| 829928 (k[5mC]*kA*k[5mC]*dT*dA*d[5mC]*dA*dA*dT*dG*d[5mC]*dT*dA*kA*kA*kT; antisense) [compound 829928] | 26 |
| 829972 (k[5mC]*kT*k[5mC]*dG*dG*d[5mC]*d[5mC]*dA*d[5mC]*dA*d[5mC]*dA*d[5mC]*k[5mC]*kT*k[5mC]; antisense) [compound 829972] | 22 |
| 829911 (antisense k[5mC]*kG*kA*d[5mC]*d[5mC]*dA*dA*dA*dG*dA*dG*dT*dT*kT*kG*k[5mC]) [compound 829911] | 52 |
| 829917 (antisense kA*kG*kT*dG*dT*dA*dT*dG*dA*dG*dT*dT*dG*kT*kA*kG) [compound 829917] | 45 |
| 830005 (antisense k[5mC]*kT*k[5mC]*dA*d[5mC]*d[5mC]*dA*dG*dT*dT*dG*dG*dT*kT*kT*kG) [compound 830005] | 13 |
| 829989 (kG*kG*k[5mC]*d[5mC]*dG*d[5mC]*dG*dA*dG*dG*d[5mC]*dG*dG*kT*kG*kA; antisense) [compound 829989] | 2 |
| 829959 (kT*kT*kA*dT*dT*dA*dA*dT*dG*dG*dT*d[5mC]*dT*kG*k[5mC]*kT; antisense) [compound 829959] | 12 |
| 829840 (kG*kG*kA*d[5mC]*dA*d[5mC]*dA*dG*dT*dA*dG*dA*dG*k[5mC]*k[5mC]*kT; antisense) [compound 829840] | 0 |
| 829865 (antisense kG*kG*k[5mC]*dG*dG*dA*d[5mC]*dT*dT*dG*dA*dT*dG*kA*kA*kG) [compound 829865] | 30 |
| 829914 (antisense kA*k[5mC]*k[5mC]*dT*dT*dG*dG*dG*dT*dT*dA*dT*dG*kA*k[5mC]*kG) [compound 829914] | 35 |
